What was measured:
red blood cells = test: Hemolytic activity of PEB-biguanidium salts; format: cell-based; details: red blood cells 2% v/v in PBS, 1 h at 37 °C
Protocol: The toxicity of PEB-Biguanidiums salts was estimated through their hemolytic activity by incubating red blood cells (RBC) with the compounds for 1 h (See Supplementary Table S13 and Supplementary Fig. S29).
Experimental. Red blood cells in Alsever’s solution were centrifuged for 10 min at 300g, washed 3 times with PBS buffer, and resuspended in PBS at 2% v/v. To each well of a 96-well plate, 195 µL of red blood cell solution and 5 µL of biguanidium salt in DMSO were added, and the plate was incubated with light agitation for 1 h at 37 °C. The plate was then centrifuged for 10 min at 300g, and 50 µL of the supernatant solution of each well was transferred to another plate. Absorbance was measured at λ = 405 nm. Each measurement was performed in triplicate in three different experiments.

[1] = system: HPNE cells (normal immortalized pancreatic epithelial cells); test: Growth assay (crystal violet), HPNE cells; format: cell-based, human; details: 3 days treatment, crystal violet retention assay
Protocol: . The IC50 of most of the synthetic biguanides in HPNE cells was higher than for cancer cells (Supplementary Table S12).
All chemicals were purchased from Aldrich Chemicals in their highest purity and used without further purification. Deuterated dimethylsulfoxide (DMSO-d^6) and deuterated chloroform (CDCl3) were purchased from CDN Isotopes. NMR spectra were recorded on Bruker advance 400 and 100 spectrometers. Coupling constants are given in hertz (Hz) and chemical shifts are given in parts per million (ppm, δ) measured relative to the residual solvent (the multiplicity of the signals are given as s: singlet, d: doublet, t: triplet, and m: multiplet). High-resolution mass spectra (HRMS) were recorded on a TSQ Quantum Ultra (Thermo Scientific) triple quadrupole with accurate mass option instrument (Université de Montréal Mass Spectrometry Facility). MS experiences were performed using an UltrafleXtreme MALDI TOF/TOF mass spectrometer equipped with a SmartBeam II Nd:Yag/355 nm laser operating at 1 kHz and providing a laser focus down to 20 μm in diameter (Bruker Daltonics, Billerica, MA). The data acquisition for MS was performed in positive ion mode using the linear geometry with flexControl 3.4 (Bruker Daltonics, Billerica, MA). Acceleration voltage was set to + 25 kV and all other instrumental parameters (delayed extraction parameters, source voltages, detector gain, laser energy, etc.) were optimized for maximum S/N for the drug compounds. L-α-Phosphatidylcholine was purchased from Avanti Polar Lipids. Transport and depolarization studies as well as absorbance measurements were performed on a Varian Cary Eclipse fluorescence spectrophotometer. The hemolysis assays were performed on a Fluostar Optima plate reader. Single crystals of C18H18F3N5O3S were obtained from chloroform. A suitable crystal was selected and analysed on a Bruker Venture Metaljet diffractometer. Crystal violet retention assay was used for cell growth assays and IC50 were determined using Prism (GraphPad). NAD/NADH quantitation colorimetric kit (#K337-100) from Biovision was used according to manufacturer’s instructions. ECAR (extracellular acidification rate) and OCR of KP4 cells (oxygen consumption rate) were measured on a Seahorse XF-24 (Agilent).
Experimental. KP4 (Riken RCB1005) and PSN1 (ATCC: CRM-CRL-3211), were cultured in Dulbecco's modified Eagle's medium (DMEM) (Wisent, St-Bruno, QC) supplemented with 10 % of fetal bovine serum (FBS) (Wisent). HPNE hTERT (ATCC: CRL1423) were cultured in a mix of 75% DMEM without glucose (Sigma Cat#. D-5030) with additional 2 mM L-glutamine and 1.5 g/L sodium bicarbonate, 25% Medium M3 Base (Incell Corp. Cat# M300F- 500), fetal bovine serum 5% (wisent 10 ng/ml human recombinant EGF (Sigma-Aldrich), 5.5 mM D-glucose (Sigma-Aldrich), 750 ng/ml puromycin (Sigma-Aldrich). For dose-response assays, cells were seeded in 96 well plates (company). After 24 h, treatments were applied and cells were grown for 3 more days. Crystal violet retention assay used for cell growth assays were described previously^2. The data is expressed as relative absorbance of crystal violet extracted from the cells and diluted in 10 % acetic acid. IC50 were determined using Prism (GraphPad). Tumor spheres were grew according to Ferbeyre et al^3.

AMPK = test: Immunoblots of AMPK T172 and ACC S79 phosphorylation, KP4 cells; format: cell-based, human; details: 15 µM, 24 h
Protocol: Figure 3 Effects of biguanides on cell proliferation and viability in pancreatic cancer cells. […]. […] | decimal sign comma or point
. […]. Experimental. Cells were rinsed twice with 1X PBS, and lysed in Laemmli 2x (4% SDS, 20% glycerol, 120 mM Tris-HCl pH 6.8). Laemmli extracts were boiled for 5 minutes, then the concentration was assessed with NanoDrop (ThermoFisher) and equalized between samples. Lysates were supplemented with 10% beta-mercaptoethanol and 0.05% bromophenol blue and boiled again for 5 minutes. 25 µg of extracts were loaded on SDS-PAGE then transferred on nitrocellulose membranes for 1h30 at 130V. Membranes were rinsed in 1XPBS1-0.05% Tween-20 then blocked for 1h in 1XPBS, 0.05%-Tween-20 5% Milk. Membranes were rinsed again 3 x 10 min in PBS-Tween, then incubated overnight at 4°C with the following primary antibodies in 1XPBS-0.1%BSA, 0.02%Sodium azide: anti-phospho-AMPK T172 (1:1000, Rabbit, 2531S, Cell Signaling), anti-AMPKalpha (1:1000, Rabbit, 2532, Cell Signaling), anti-phospho-ACC S79 (1:1000, Rabbit Polyclonal, 3661S, Cell Signaling), or incubated for 1h at RT with anti-beta-Actin (1:2000, Mouse, 3700, Cell Signaling). […]

[2] = system: KP4 cells sub-cutaneous xenografts; test: KP4 sub-cutaneous xenografts in nude mice; details: 50 mg/kg/day IP, 5 day/week
Description: This dose was chosen from previous work on biguanides to treat mice with pancreatic cancer.
Figure 5 Progression of the volume of KP4 cells sub-cutaneous xenografts performed in nude mice over 37 days. […] (B) Body weight of mice seven days after treatment. […] Representative images shown. Scale bar = 100 µm. […] Results are shown in graphics comparing the percentage of cells stained in each category and the intensity of staining. (E,G) Images of the most representative phenotypes for KI67 staining (E) and cleaved caspase 3 (G).
Experimental. All experiments were performed in accordance to the rules of the in vivo ethical committe of University of Montreal (CDEA #17-103). 6-7 weeks old female nude mice (Hsd:Athymic Nude- Foxn1nu, Envigo) were implanted sub-cutaneously with 750.000 KP4 cells in 100μl of a sterile mix of 20% Matrigel (Corning) in saline solution. Tumor volume was determined by using a caliper, following the formula 4/3*Π*(L*W*T) were L represent the length of the tumor, W, the width, and T, the thickness (all measured in millimeter). […] The compounds were dissolved in the vehicle: 45% Propyleneglycol (Sigma-Aldrich) +5% Tween 80 (Sigma-Aldrich) + ddH2O.

N=C(N)NC(=N)NCc1ccc(C#Cc2ccccc2)cc1 [1b, 4-(phenylethynyl)benzylbiguanide]
HC 10% (µM) (red blood cells): > 227 µM
HC 10% (µg/ml) (red blood cells): > 100 µg/mL
IC50 [1]: 80.9 µM
AMPK activation (phosphorylation of AMPK T172 and ACC) (AMPK): induced AMPK activation
Effect on body weight [2]: did not affect body weight
Tolerability in vivo [2]: well tolerated
Effect on tumor volume ([2]; from day 11 post engraftment, 37 days): significantly reduced tumor volume

— PMC8110578, “Phenylethynylbenzyl-modified biguanides inhibit pancreatic cancer tumor growth” (Scientific Reports, 2021)
